In BindingDB's records for patent US20240018157 (Schrödinger, 2024):

Biological target: T1, Mucosa-associated lymphoid tissue lymphoma translocation protein 1 (Homo sapiens, UniProt Q9UDY8)
T1 sequence (Q9UDY8 whole entry): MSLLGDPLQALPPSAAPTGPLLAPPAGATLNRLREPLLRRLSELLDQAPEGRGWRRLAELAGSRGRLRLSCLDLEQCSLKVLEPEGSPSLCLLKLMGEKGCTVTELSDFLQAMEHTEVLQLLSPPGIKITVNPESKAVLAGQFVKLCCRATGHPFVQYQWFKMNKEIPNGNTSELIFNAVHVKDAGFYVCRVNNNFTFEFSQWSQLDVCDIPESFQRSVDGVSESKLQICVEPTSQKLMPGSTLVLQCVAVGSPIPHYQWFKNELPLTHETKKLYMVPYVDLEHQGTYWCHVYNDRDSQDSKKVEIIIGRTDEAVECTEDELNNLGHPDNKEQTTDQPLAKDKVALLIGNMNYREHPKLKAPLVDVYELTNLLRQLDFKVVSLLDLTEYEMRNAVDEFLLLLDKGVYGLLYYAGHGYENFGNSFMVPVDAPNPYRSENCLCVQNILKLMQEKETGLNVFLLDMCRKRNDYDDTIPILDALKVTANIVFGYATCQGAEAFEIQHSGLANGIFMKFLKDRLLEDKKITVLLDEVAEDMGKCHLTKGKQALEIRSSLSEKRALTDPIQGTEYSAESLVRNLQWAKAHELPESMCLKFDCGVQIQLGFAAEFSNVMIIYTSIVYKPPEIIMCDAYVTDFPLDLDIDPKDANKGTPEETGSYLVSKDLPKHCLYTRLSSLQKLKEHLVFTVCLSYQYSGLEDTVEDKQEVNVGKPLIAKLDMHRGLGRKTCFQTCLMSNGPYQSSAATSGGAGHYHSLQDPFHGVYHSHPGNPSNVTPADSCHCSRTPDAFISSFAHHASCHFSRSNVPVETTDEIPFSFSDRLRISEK
Experiment: MALT1 Protease Assay 2
Description: Test compounds were dissolved in 100% DMSO at stock of 10 mM, with final DMSO concentration 0.1%. Test compounds were pre-incubated with MALT1 protein for 2 h at room temperature.

Row | Compound | IC50
1 | CO[C@]1(C(F)(F)F)CN(C(=O)Nc2cnc(-n3nccn3)c(Cl)c2)c2cnc3cc(Cl)nn3c21 [US20240018157, Example 135] | 100 to 1000 nM
2 | C[C@]1(C(F)(F)F)CN(C(=O)Nc2cnnc(C(F)F)c2)c2cnc3c(F)c(Cl)nn3c21 [US20240018157, Example 137] | > 1000 nM
3 | C[C@]1(C(F)(F)F)CN(C(=O)Nc2cnc(-n3nccn3)c(Cl)c2)c2cnc3c(F)c(F)nn3c21 [US20240018157, Example 139] | > 1000 nM
4 | C[C@]1(C(F)(F)F)CN(C(=O)Nc2cnnc(C(F)F)c2)c2cnc3c(F)c(F)nn3c21 [US20240018157, Example 141] | > 1000 nM
5 | O=C(Nc1cnnc(C(F)F)c1)N1C[C@](C2CC2)(C(F)(F)F)c2c1cnc1cc(Cl)nn21 [US20240018157, Example 145] | 100 to 1000 nM
6 | C[C@]1(C(F)(F)F)CN(C(=O)Nc2cnc(-n3nccn3)c(Cl)c2)c2cnc3c(F)cnn3c21 [US20240018157, Example 147] | > 1000 nM
7 | Cc1cn2ncc3c(c2n1)[C@@](C)(C(F)(F)F)CN3C(=O)Nc1cnc(-n2nccn2)c(Cl)c1 [US20240018157, Example 153] | 10 to 100 nM
8 | Cc1nnc(C(F)F)cc1NC(=O)N1C[C@@](C)(C(F)(F)F)c2c1cnc1cc(Cl)nn21 [US20240018157, Example 154] | 100 to 1000 nM
9 | C[C@]1(C(F)(F)F)CN(C(=O)Nc2cnnc(C(F)F)c2)c2cnc3cc(CC(F)F)nn3c21 [US20240018157, Example 155] | 100 to 1000 nM
10 | C[C@@]1(C(F)(F)F)CN(C(=O)Nc2cnnc(C(F)F)c2)c2cnc3cc(CC(F)F)nn3c21 [US20240018157, Example 156] | > 1000 nM
11 | CCc1nn2c3c(cnc2c1N)N(C(=O)Nc1cnc(-n2nccn2)c(Cl)c1)C[C@]3(C)C(F)(F)F [US20240018157, Example 157] | 100 to 1000 nM
12 | CCc1nn2c3c(cnc2c1N)N(C(=O)Nc1cnc(-n2nccn2)c(Cl)c1)C[C@@]3(C)C(F)(F)F [US20240018157, Example 158] | > 1000 nM

Next, values leading:

Row | IC50 | Compound
13 | < 10 nM | C[C@@H](O)c1cnn(-c2ncc(NC(=O)N3C[C@@](C)(C(F)(F)F)c4c3cnc3cc(Cl)nn43)cc2C(F)F)n1 [US20240018157, Example 127]
14 | < 10 nM | C[C@@]1(C(F)F)CN(C(=O)Nc2cnc(-n3nccn3)c(Cl)c2)c2cnc3cc(Cl)nn3c21 [US20240018157, Example 128]
15 | 10 to 100 nM | C[C@]1(C(F)F)CN(C(=O)Nc2cnc(-n3nccn3)c(Cl)c2)c2cnc3cc(Cl)nn3c21 [US20240018157, Example 129]
16 | < 10 nM | CO[C@@]1(C(F)(F)F)CN(C(=O)Nc2cnc(-n3nccn3)c(Cl)c2)c2cnc3cc(Cl)nn3c21 [US20240018157, Example 136]
17 | 10 to 100 nM | C[C@@]1(C(F)(F)F)CN(C(=O)Nc2cnnc(C(F)F)c2)c2cnc3c(F)c(Cl)nn3c21 [US20240018157, Example 138]
18 | < 10 nM | C[C@@]1(C(F)(F)F)CN(C(=O)Nc2cnc(-n3nccn3)c(Cl)c2)c2cnc3c(F)c(F)nn3c21 [US20240018157, Example 140]
19 | 10 to 100 nM | C[C@@]1(C(F)(F)F)CN(C(=O)Nc2cnnc(C(F)F)c2)c2cnc3c(F)c(F)nn3c21 [US20240018157, Example 142]
20 | 10 to 100 nM | O=C(Nc1cnnc(C(F)F)c1)N1C[C@@](C2CC2)(C(F)(F)F)c2c1cnc1cc(Cl)nn21 [US20240018157, Example 144]
21 | < 10 nM | C[C@@]1(C(F)(F)F)CN(C(=O)Nc2cnc(-n3nccn3)c(Cl)c2)c2cnc3c(F)cnn3c21 [US20240018157, Example 146]
22 | < 10 nM | C[C@@]1(C(F)(F)F)CN(C(=O)Nc2cnc(C(=O)NC3CC3)c(C(F)F)c2)c2cnc3cc(Cl)nn3c21 [US20240018157, Example 150]
23 | < 10 nM | CN(C(=O)c1ncc(NC(=O)N2C[C@@](C)(C(F)(F)F)c3c2cnc2cc(Cl)nn32)cc1C(F)F)C1CC1 [US20240018157, Example 151]
24 | < 10 nM | Cc1cn2ncc3c(c2n1)[C@](C)(C(F)(F)F)CN3C(=O)Nc1cnc(-n2nccn2)c(Cl)c1 [US20240018157, Example 152]
